Results: patent publication US11578072B2, “Spiro-lactam NMDA receptor modulators and uses thereof” (Aptinyx Inc., priority 2018, dated 2023)

Columns and labels:
Plasma stability (Human) = format: in vitro ADME; conditions: after 60 minutes
Procedure: (§1) Plasma stability of disclosed compounds was investigated. The following table indicates the percent of compound remaining after 60 minutes.

NMDAR2B = molecular target: T1, NMDAR2B (Homo sapiens, UniProt Q13224); test: NMDAR agonist assay, [3H]MK-801 binding, NMDAR2B expressing HEK cell membranes; format: biochemical; conditions: 50 μM glutamate
T1 construct: expressed in transfected cells; host or cells: HEK cells (membrane extract)
T1 sequence (Q13224 27-1484, species assumed, other chains not shown): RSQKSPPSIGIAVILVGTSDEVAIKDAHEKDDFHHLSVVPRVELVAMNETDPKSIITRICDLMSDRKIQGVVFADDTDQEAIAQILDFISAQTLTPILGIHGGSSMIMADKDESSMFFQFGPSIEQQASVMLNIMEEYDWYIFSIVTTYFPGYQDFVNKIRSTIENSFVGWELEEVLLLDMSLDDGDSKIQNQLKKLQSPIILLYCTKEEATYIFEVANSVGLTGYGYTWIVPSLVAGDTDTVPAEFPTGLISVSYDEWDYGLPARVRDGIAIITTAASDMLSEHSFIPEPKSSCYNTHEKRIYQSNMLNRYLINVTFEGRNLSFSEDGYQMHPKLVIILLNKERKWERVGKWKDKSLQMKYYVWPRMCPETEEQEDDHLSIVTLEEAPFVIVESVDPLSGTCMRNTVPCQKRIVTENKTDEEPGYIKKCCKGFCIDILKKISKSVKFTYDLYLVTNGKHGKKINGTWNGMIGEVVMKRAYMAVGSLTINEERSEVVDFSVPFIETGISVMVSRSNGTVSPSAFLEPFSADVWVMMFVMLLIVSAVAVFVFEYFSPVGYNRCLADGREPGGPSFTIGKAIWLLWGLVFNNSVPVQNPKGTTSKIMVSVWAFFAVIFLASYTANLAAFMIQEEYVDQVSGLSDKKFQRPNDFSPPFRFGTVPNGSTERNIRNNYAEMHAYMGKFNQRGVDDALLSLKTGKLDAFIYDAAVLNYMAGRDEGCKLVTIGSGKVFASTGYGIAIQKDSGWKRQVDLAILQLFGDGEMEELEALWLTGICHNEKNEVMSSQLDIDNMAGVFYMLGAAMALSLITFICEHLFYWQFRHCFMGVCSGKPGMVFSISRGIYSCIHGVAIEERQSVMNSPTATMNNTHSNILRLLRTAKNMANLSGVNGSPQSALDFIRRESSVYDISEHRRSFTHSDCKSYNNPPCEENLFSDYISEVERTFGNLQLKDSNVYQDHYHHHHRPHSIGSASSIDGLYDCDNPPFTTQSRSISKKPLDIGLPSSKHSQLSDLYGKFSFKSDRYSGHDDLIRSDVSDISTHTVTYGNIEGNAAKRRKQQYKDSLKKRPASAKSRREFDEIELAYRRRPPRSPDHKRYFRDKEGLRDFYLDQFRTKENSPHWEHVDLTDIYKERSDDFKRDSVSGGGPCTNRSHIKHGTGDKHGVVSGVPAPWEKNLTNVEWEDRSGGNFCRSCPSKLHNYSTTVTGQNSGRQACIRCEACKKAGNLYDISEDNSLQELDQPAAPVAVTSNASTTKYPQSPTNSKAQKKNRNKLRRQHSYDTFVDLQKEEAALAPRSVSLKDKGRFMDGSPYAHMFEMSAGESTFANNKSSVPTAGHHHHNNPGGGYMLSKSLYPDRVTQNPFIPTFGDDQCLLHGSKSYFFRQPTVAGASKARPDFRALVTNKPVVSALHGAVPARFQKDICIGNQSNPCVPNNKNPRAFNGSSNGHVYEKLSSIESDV
Procedure: (§2) Assays were conducted as described by Moskal et al., “GLYX-13: a monoclonal antibody-derived peptide that acts as an N-methyl-D-aspartate receptor modulator,” Neuropharmacology, 49, 1077-87, 2005. These studies were designed to determine if the test compounds act to facilitate NMDAR activation in NMDAR2A, NMDAR2B, NMDAR2C or NMDAR2D expressing HEK cell membranes as measured by increases in [3H]MK-801 binding.
(§3) In the assay, 300 μg of NMDAR expressing HEK cell membrane extract protein was preincubated for 15 minutes at 25° C. in the presence of saturating concentrations of glutamate (50 μM) and varying concentrations of test compound (1×10^−15M-1×10^−7M), or 1 mM glycine. Following the addition of 0.3 μCi of [3H]MK-801 (22.5 Ci/mmol), reactions were again incubated for 15 minutes at 25° C. (nonequilibrium conditions). Bound and free [3H]MK-801 were separated via rapid filtration using a Brandel apparatus.
(§4) In analyzing the data, the DPM (disintegrations per minute) of [3H]MK-801 remaining on the filter were measured for each concentration of test compound or for 1 mM glycine. The DPM values for each concentration of a ligand (N=2) were averaged. The baseline value was determined from the best fit curve of the DPM values modeled using the GraphPad program and the log(agonist) vs. response(three parameters) algorithm was then subtracted from all points in the dataset. The % maximal [3H]MK-801 binding was then calculated relative to that of 1 mM glycine: all baseline subtracted DPM values were divided by the average value for 1 mM glycine. The EC50 and % maximal activity were then obtained from the best fit curve of the % maximal [3H]MK-801 binding data modelled using the GraphPad program and the log(agonist) vs. response(three parameters) algorithm.
(§5) The tables below summarize the results for the wild type NMDAR agonists NMDAR2A, NMDAR2B, NMDAR2C, and NMDAR2D, and whether the compound is not an agonist (−), is an agonist (+), or is a strong agonist (++), where column A is based on the % maximal [3H]MK-801 binding relative to 1 mM glycine (−=0; <100%=+; and >100%=++); and column B is based on log EC50 values (0=−; >1×10^−9 M (e.g., −8)=+; and <1×10^−9 M (e.g., −10)++).

[1] = IV pharmacokinetics in rats; conditions: Sprague Dawley, in vivo, rat, 2 mg/kg, normal saline
Procedure: Sprague Dawley rats were dosed intravenously using a normal saline formulation containing 2 mg/kg of the compounds identified in the below table. The table below summarizes the results of the IV pharmacokinetics.

Plasma stability (Rat) = format: in vitro ADME; conditions: after 60 minutes
Procedure: as §1

[2] = Oral pharmacokinetics in rats (plasma, brain, CSF); format: in vivo, Sprague Dawley rats; conditions: rat, oral gavage, 10 mg/kg
Procedure: In another experiment, Sprague Dawley rats were dosed per os (oral gavage) using a normal saline formulation containing 10 mg/kg of the compounds identified in the table below. Plasma, brain, and CSF samples were analyzed at various time points over a 24 hour period. The table below summarizes the results of the oral pharmacokinetics, where the first three values (Tmax, Cmax and AUClast) are plasma values.

NMDAR2A = molecular target: T2, NMDAR2A (Homo sapiens, UniProt Q12879); test: NMDAR agonist assay, [3H]MK-801 binding, NMDAR2A expressing HEK cell membranes; format: biochemical; conditions: 50 μM glutamate
T2 construct: expressed in transfected cells; host or cells: HEK cells (membrane extract)
T2 sequence (Q12879 23-1464, species assumed, other chains not shown): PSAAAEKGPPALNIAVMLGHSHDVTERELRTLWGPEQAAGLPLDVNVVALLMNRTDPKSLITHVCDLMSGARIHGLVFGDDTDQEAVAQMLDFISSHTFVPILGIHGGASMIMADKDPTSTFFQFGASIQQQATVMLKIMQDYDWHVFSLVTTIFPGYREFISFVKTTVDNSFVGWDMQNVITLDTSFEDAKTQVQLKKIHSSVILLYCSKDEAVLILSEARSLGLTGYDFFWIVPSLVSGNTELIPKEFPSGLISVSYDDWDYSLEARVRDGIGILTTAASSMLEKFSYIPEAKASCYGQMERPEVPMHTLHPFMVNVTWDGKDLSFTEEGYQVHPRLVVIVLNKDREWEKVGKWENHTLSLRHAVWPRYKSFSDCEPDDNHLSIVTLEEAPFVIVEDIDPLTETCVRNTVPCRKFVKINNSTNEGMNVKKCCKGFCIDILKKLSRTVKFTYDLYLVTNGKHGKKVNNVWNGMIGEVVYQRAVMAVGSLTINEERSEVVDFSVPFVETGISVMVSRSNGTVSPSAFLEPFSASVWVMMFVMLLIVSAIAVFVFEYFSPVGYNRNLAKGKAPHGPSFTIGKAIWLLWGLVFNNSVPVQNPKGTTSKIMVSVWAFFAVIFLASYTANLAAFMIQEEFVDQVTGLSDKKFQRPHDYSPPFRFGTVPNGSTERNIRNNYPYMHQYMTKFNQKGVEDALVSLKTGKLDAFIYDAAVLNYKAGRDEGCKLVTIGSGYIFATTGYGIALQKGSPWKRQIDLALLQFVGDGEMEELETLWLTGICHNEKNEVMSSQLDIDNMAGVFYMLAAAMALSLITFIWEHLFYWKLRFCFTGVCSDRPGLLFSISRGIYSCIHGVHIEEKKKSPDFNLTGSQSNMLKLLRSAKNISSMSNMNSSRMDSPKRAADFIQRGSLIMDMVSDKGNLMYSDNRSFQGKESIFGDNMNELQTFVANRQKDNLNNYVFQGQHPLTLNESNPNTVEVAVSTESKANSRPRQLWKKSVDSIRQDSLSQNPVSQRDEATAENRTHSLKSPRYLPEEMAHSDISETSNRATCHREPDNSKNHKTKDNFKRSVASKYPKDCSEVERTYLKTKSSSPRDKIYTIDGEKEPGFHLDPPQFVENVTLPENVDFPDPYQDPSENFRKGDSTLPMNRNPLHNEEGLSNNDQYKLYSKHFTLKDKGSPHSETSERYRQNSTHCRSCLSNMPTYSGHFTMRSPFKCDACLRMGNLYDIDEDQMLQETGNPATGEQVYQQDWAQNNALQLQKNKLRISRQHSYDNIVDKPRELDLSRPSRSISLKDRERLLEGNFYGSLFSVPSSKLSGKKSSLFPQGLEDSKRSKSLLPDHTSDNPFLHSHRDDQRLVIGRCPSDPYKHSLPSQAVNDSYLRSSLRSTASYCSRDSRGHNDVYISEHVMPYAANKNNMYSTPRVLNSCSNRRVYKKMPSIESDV
Procedure: as §2, §3, §4, §5

[3] = Microsomal stability (Rat); format: in vitro ADME; conditions: rat microsomes, after 60 minutes
Procedure: Microsomal stability of disclosed compounds was investigated. The following table indicates the percent of compound remaining after 60 minutes.

Sprague Dawley rats = test: Porsolt forced swim test; format: in vivo
Procedure: A non-clinical in vivo pharmacology study (Porsolt assay) was performed to measure antidepressant-like effects. The study allowed for the evaluation of the effects of each compound on the Porsolt forced swim test as assessed by the rats' response (reduced floating time) during a 5-minute swimming test.
Male 2-3 month old Sprague Dawley rats were used (Harlan, Indianapolis, Ind.). Rats were housed in Lucite cages with aspen wood chip bedding, maintained on a 12:12 light:dark cycle (lights on at 5 AM), and given ad libitum access to Purina lab chow (USA) and tap water throughout the study.
The Porsolt forced swim test adapted for use in rats was performed as described by Burgdorf et al., (The long-lasting antidepressant effects of rapastinel (GLYX-13) are associated with a metaplasticity process in the medial prefrontal cortex and hippocampus. Neuroscience 308:202-211, 2015). Animals were placed in a 46 cm tall×20 cm in diameter clear glass tube filled to 30 cm with tap water (23±1° C.) for 15 min on the first day (habituation) and 5 min on the subsequent test day. Animals were tested 1 h or 1 week post-dosing with the test compounds or vehicle control (0.5% sodium carboxymethyl cellulose in 0.9% sterile saline). Animals received a 15 min habituation session 1 day before the first 5 min test. Water was changed after every other animal. Animals were videotaped, and floating time as defined as the minimal amount of effort required to keep the animals head above water was scored offline by a blinded experimenter with high inter-rater reliability (Pearson's r>0.9).

NMDAR2D [4] = molecular target: T3, NMDAR2D (Homo sapiens, UniProt O15399+Q05586); test: NMDAR agonist assay, [3H]MK-801 binding, NMDAR2D expressing HEK cell membranes; format: biochemical; conditions: 50 μM glutamate, read-out: NMDAR2D B: log EC50 (converted)
T3 construct: expressed in transfected cells; host or cells: HEK cells (membrane extract)
T3 sequence (O15399 28-1336, species assumed, other chains not shown): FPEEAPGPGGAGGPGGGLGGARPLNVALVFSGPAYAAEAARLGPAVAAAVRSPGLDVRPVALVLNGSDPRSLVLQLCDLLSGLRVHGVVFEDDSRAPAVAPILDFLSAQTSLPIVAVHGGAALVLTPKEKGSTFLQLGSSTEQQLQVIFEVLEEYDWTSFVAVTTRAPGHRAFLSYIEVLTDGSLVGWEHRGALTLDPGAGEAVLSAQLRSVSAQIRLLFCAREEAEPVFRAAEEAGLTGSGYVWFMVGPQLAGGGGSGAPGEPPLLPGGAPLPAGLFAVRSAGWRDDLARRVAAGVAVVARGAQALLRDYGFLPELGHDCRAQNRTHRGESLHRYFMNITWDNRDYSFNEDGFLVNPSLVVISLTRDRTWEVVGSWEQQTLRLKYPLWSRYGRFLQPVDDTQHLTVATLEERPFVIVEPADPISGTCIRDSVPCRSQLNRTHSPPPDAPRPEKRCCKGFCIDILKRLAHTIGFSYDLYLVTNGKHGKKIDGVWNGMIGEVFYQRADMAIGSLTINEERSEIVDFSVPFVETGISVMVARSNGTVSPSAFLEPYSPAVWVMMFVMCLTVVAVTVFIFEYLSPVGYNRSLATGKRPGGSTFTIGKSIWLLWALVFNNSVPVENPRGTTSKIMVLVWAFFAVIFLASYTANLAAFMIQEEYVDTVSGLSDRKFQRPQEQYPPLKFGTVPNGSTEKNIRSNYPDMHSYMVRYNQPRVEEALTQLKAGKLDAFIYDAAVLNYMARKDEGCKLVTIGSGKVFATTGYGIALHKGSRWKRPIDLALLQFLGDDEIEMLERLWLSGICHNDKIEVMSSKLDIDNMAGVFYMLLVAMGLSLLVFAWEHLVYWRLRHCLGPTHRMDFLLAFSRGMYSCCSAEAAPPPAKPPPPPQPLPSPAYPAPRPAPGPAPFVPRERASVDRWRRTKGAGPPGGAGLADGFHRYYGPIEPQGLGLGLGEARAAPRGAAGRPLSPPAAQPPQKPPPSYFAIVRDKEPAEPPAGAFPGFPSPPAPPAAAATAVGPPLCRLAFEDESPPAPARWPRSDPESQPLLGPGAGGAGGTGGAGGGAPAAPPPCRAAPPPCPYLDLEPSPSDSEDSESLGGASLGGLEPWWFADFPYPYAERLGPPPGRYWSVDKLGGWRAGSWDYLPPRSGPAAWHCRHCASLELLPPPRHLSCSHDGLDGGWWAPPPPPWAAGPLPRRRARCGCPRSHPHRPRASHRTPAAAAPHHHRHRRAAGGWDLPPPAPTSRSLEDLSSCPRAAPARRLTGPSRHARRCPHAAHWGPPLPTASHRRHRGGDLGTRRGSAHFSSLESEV
Procedure: as §2, §3, §4, §5

NMDAR2D [5] = molecular target: T4, NMDAR2D (Homo sapiens, UniProt O15399); test: as above; format: biochemical; conditions: 50 μM glutamate
T4 construct: expressed in transfected cells; host or cells: HEK cells (membrane extract)
T4 sequence (O15399 28-1336, species assumed, other chains not shown): as above
Procedure: as §2, §3, §4, §5

- Plasma (Human): percent of compound remaining (Plasma stability (Human)): 98%
- NMDAR2B A: % maximal [3H]MK-801 binding relative to 1 mM glycine (NMDAR2B): + (<100%=+)
- EC50 (NMDAR2B; read-out: NMDAR2B B: log EC50 (converted)): < 1 nM
- AUC(0-t) [1]: 5.28 µg·h/mL
- Cmax [1]: 3.79 µg/mL
- clearance [1]: 0.373 L/h/kg
- half-life [1]: 6.37 h
- Vd ([1]; read-out: Vss): 0.92 L/kg
- Plasma (Rat): percent of compound remaining (Plasma stability (Rat)): 95%
- bioavailability ([2]; Sprague Dawley, plasma): 70%
- AUC(0-t) ([2]; Sprague Dawley, plasma): 18.4 µg·h/mL
- Cmax ([2]; Sprague Dawley, plasma): 8.54 µg/mL
- Tmax ([2]; Sprague Dawley, plasma): 0.33 h
- CSF Cmax ([2]; CSF): 4.697 µg/mL
- Brain Cmax ([2]; brain): 4.833 µg/mL
- NMDAR2A A: % maximal [3H]MK-801 binding relative to 1 mM glycine (NMDAR2A): + (<100%=+)
- EC50 (NMDAR2A; read-out: NMDAR2A B: log EC50 (converted)): < 1 nM
- Microsomal (Rat): percent of compound remaining [3]: 100%
- EC50 (NMDAR2D [4]): < 1 nM
- NMDAR2D A: % maximal [3H]MK-801 binding relative to 1 mM glycine (NMDAR2D [5]): + (<100%=+)
Structure (SMILES): CC(C)C(=O)N1CCC2(CCCNC2=O)CC1 [Compound AD, 9-isobutyryl-2,9-diazaspiro[5.5]undecan-1-one]
- % reduction in float time (Sprague Dawley rats; 0.00001 mg/kg, 1 wk post-dose): 1%
- Significance vs. vehicle (Sprague Dawley rats; 0.00001 mg/kg, 1 wk post-dose): No
- % reduction in float time (Sprague Dawley rats; 0.00001 mg/kg, 1 h post-dose): 25%
- Significance vs. vehicle (Sprague Dawley rats; 0.00001 mg/kg, 1 h post-dose): No
- % reduction in float time (Sprague Dawley rats; 0.001 mg/kg, 1 wk post-dose): 41%
- Significance vs. vehicle (Sprague Dawley rats; 0.001 mg/kg, 1 wk post-dose): No
- % reduction in float time (Sprague Dawley rats; 0.001 mg/kg, 1 h post-dose): 47%
- Significance vs. vehicle (Sprague Dawley rats; 0.001 mg/kg, 1 h post-dose): Yes
- % reduction in float time (Sprague Dawley rats; 0.1 mg/kg, 1 wk post-dose): 39%
- Significance vs. vehicle (Sprague Dawley rats; 0.1 mg/kg, 1 wk post-dose): No
- % reduction in float time (Sprague Dawley rats; 0.1 mg/kg, 1 h post-dose): 53%
- Significance vs. vehicle (Sprague Dawley rats; 0.1 mg/kg, 1 h post-dose): Yes
- % reduction in float time (Sprague Dawley rats; 10.0 mg/kg, 1 wk post-dose): 37%
- Significance vs. vehicle (Sprague Dawley rats; 10.0 mg/kg, 1 wk post-dose): No
- % reduction in float time (Sprague Dawley rats; 10.0 mg/kg, 1 h post-dose): 39%
- Significance vs. vehicle (Sprague Dawley rats; 10.0 mg/kg, 1 h post-dose): Yes
